Experimental data reported in patent US20090226909A1 (Tel HaShomer Medical Research Infrastructure and Services …, priority 2006, published 2009).
Several values for one entry are separate records, joined by “and”; a condition that tells them apart may be missing. Identical values can stand only once.

What was measured:
[1] = CYP2C9*1 (wild type) allele; Higashi 2002, Sconce 2005; cited from earlier work
[2] = Effect of combined CYP2C9, VKORC1 and CALU genotypes on warfarin dose requirements (FIG. 2); format: in vivo, human; settings: dotted line of FIG. 2
Excerpt: The combined genotypes are ordered according to the model proposed by Wallin R, et al., 2001, assuming the reduced VKORC1 activity associated with the VKORC1 6853G→C polymorphism and the reduced activity of CALU associated with the CALU 73G→A (R4Q) polymorphism and assigning equal weight to CYP2C9 and VKORC1 genotypes. […] CYP2C9=cytochrome P450 2C9; VKORC1=vitamin K epoxide reductase component 1; CALU=calumenin;

[3] = Warfarin dose requirements in selected warfarin resistant and warfarin sensitive patients at stable therapeutic INR; format: in vivo, human
Protocol: Aliquots of fresh whole blood were drawn for INR determination and DNA extraction.
Data Analyses—Statistical analyses were performed using SPSS software (version 11.0, SPSS Inc.) and GB-STAT software package (version 8.0, Dynamic Microsystems Inc.). Relevant statistical applications are mentioned in the text, odds ratios (OR) are presented with 95% confidence limits, p value of <0.05 indicates statistical significance.

[4] = Warfarin dose requirements in 99 unselected warfarin-treated subjects at stable INR, by VKORC1 Asp36Tyr (D36Y) carrier status; format: in vivo, human
[5] = two patients with VKORC1 Asp36Tyr; Geisen 2005b; cited from earlier work
[6] = 23 selected resistant and sensitive subjects

Row | Structure (SMILES) | warfarin doses associated with CYP2C9*1 variant [1] | median weight-normalized warfarin dose [2] | INR maintained under warfarin [3, 6] | INR maintained under warfarin, range [3, 6] | mean warfarin weekly dose ([3]; warfarin resistant group (N=15, subjects 1-15)) | mean warfarin weekly dose ([3]; warfarin sensitive group (N=8, subjects 16-23)) | INR maintained under warfarin, range ([4]; 99 unselected warfarin-treated subjects) | INR maintained under warfarin ([4]; 99 unselected warfarin-treated subjects, stable INR) | warfarin dose requirements, range ([4]; carriers of VKORC1 Asp36Tyr (8/99), upper dose quartile) | warfarin dose requirements, range ([4]; non-carriers of Asp36Tyr (n=91)) | mean warfarin dose required ([4]; non-carriers of Asp36Tyr (n=91), mean±SD) | mean warfarin dose ([4]; whole unselected warfarin-treated group (N=99), stable INR) | phenprocoumon requirement to maintain INR between 2.0 and 3.0 [5]
1 | CC(=O)CC(c1ccccc1)c1c(O)c2ccccc2oc1=O (stereo not shown) [warfarin] | 28-39 mg/week | 4.8 mg/day | 2.7±0.5 | 1.9-4.2 | 112.8±29 mg/week and 112.8 mg/week | 10.5±2.32 mg/week and 10.5 mg/week | 1.9-4.2 | 2.7±0.5 | 70-105 mg/week and > 70 mg/week | 8-70 mg/week | 42.7±7.5 mg/week | 39.4±7.8 mg/week | –
2 | CCC(c1ccccc1)c1c(O)c2ccccc2oc1=O (stereo not shown) [phenprocoumon] | – | – | – | – | – | – | – | – | – | – | – | – | 40-50 mg per week
